Consider 19 compounds from patent US5340818A, “Methods and compositions for inhibiting tumor cell growth” (priority 1993, dated 1994).

pIC50: −log10 of the molar value. Several values for one entry are separate records, joined by “and”; a condition that tells them apart may be missing. Equal entries are not always repeated. Where two headings read alike, the source gives them in different places. Some results are limits rather than exact numbers.

Holding throughout (type): cell-based, human
One experiment relates to HL-60 cells. The experiment in a line: HL-60 cell growth inhibition, 72 h. To be noted: HL-60, 72 h; for IC50: Homo sapiens. As for the experimental part:
For growth inhibition studies, HL-60 cells (1.5×10^5 /ml) were grown in RPMI 1640 media (GIBCO, Grand Island, N.Y.) at 37° C. in humidified 5% CO2 for 72 h. Viable cells were determined using trypan blue exclusion and counted in a hemocytometer. The fractional inhibition for each compound concentration (0.0025-0.05 mg/ml in 0.1% dimethylsulfoxide) was analyzed with the median-effect plot using a computer program (Chou, T. -C and P. Talalay, Adv. Enzyme Regul., 22:27-55 (1984); Chou, J. and T. -C. thou, Dose-Effect analysis with microcomputers: Quantitation of ED50, LD50, synergism, antagonism, low-dose risk, receptor ligand binding and enzyme kinetics. A computer software disk for Apple II series or IBM-PC and manual. Elsevier Science Publishers, Elsevier-BioSoft, Cambridge, United Kingdom (1986)). The median-effect concentration (IC50) was determined automatically for three to five dose-effect levels. Cell growth in the absence of plant compound and in the presence of dimethylsulfoxide was used as a control. Dimethylsulfoxide alone inhibited cell growth 3.9%±1.5% during the 72 h incubation period. Those data with negative values represent activations.

The test system of experiment [1] is RNA synthesis in HL-60 cells. The experiment in a line: Inhibition of [5-3H]Cyd incorporation into RNA of HL-60 cells. To be noted: Homo sapiens, HL-60, 0.5 h. As for the experimental part:
(§1) For the precursor incorporation studies, each compound (in 0.3% dimethylsulfoxide) was preincubated with HL-60 cells (a human promyelocytic leukemic cell line) 2.2×10^6 /ml, for 15 min prior to the addition of the labeled precursor (obtained from ICN Radiochemicals, Irvine, Calif.) and then incubated for 30 min. The precursors used for incorporation into DNA, RNA and protein were [^3 H-methyl]dThd (1 μCi, 0.15 nmole/ml), [5-^3 H]Cyd (5 μCi, 0.23 nmol/ml), and [2,3,4,5-^3 H]L-Leu (0.5 μCi, 0.004 nmol/ml), respectively. Incorporation of radioactivity in the absence of a plant compound and in the presence of dimethylsulfoxide was used as a control. The control values for incorporation into DNA, RNA and protein were 8,500, 5,600 and 1,700 cpm/10^6 cells, respectively. The incubation conditions and the procedures for isolating DNA, RNA and protein fractions have been previously described (Chou, T. -C., et al., Cancer Res., 43:3074-3079 (1983)) .
(§2) HL-60 cells were incubated with [5-^3 H]Cyd or [2,3,4,5-^3 H]L-Leu in the presence and absence of alkaloids (0.03 mg/ml) in order to find the effects of the alkaloid on the incorporation of labeled precursors into RNA or protein. […] Over 90% of RNA and protein biosynthesis were inhibited by compounds 11, 16, 17, 22, 28, 29and 30 (Table 1). […] In most cases, the amount required to inhibit precursor incorporation into DNA was less than that to inhibit precursor incorporation into RNA or protein (i.e. DNA synthesis is inhibited most potently).

The test system of experiment [2] is DNA synthesis in HL-60 cells. The experiment in a line: Inhibition of [3H-methyl]dThd incorporation into DNA of HL-60 cells. The conditions noted are these: for inhibition at 30 µg/mL: Homo sapiens, HL-60, at 0.03 mg/mL, read-out: % Inhibition of Precursor Incorporation, DNA; for inhibition of DNA synthesis, in words: HL-60, 0.03 mg/ml. As for the experimental part:
as §1, with “control.” for “control. The control values for incorporation into DNA, RNA and protein were 8,500, 5,600 and 1,700 cpm/10^6 cells, respectively. The incubation conditions and the procedures for isolating DNA, RNA and protein fractions have been previously described (Chou, T. -C., et al., Cancer Res., 43:3074-3079 (1983)) .”
Human promyelocytic cells (HL-60) were incubated with [^3 H-methyl]dTHDin the presence and absence of a plant alkaloid.

The test system of experiment [3] is protein synthesis in HL-60 cells. Put plainly: Inhibition of [2,3,4,5-3H]L-Leu incorporation into protein of HL-60 cells. The conditions noted are these: Homo sapiens. As for the experimental part: as §1, §2
[4] abbreviates: read-out: Cell Growth Inhibition, IC50.
The mark [5] stands for this setting: at 0.03 mg/mL, read-out: % Inhibition of Precursor Incorporation, RNA.
Where [6] appears, read: HL-60, at 0.03 mg/mL, read-out: % Inhibition of Precursor Incorporation, Protein.

As usually defined, the IC50 is the concentration that inhibits the measured activity by half. As for `COc1ccc2c(=O)c3c(O)cc4c(c3n(C)c2c1OC)C=CC(C)(C)O4` [Compound 44, Citracridone-II], in the experiment with HL-60 cells (setting [4]), the concentration for half-maximal inhibition (IC50) was > 40 µg/mL and > 109 µM. Also, the results for the inhibition at 30 µg/mL in experiment [1] (setting [5]), in experiment [2] and in experiment [3] (setting [6]) were 96.4%, 77.6% and 62.7%, respectively.

With `COc1ccc2c(=O)c3c(O)cc(OC(C)=O)cc3n(C)c2c1OC` [Compound 20, O-Acetyl-grandisine-II], the IC50 in the experiment with HL-60 cells (setting [4]) was 38.7 µg/mL and 113 µM. In addition, the inhibition at 30 µg/mL was 77% in experiment [1] (setting [5]), 24.4% in experiment [2] and -5.6% in experiment [3] (setting [6]).

Take `COc1cc(O)c2c(=O)c3ccc(OC)c(O)c3n(C)c2c1` [Compound 21, Grandisine-I]: the half-inhibitory concentration (IC50) with HL-60 cells (setting [4]) is > 40 µg/mL and > 133 µM. The inhibition at 30 µg/mL in experiment [1] (setting [5]) worked out at 69.5%; in experiment [2], 71.7%; in experiment [3] (setting [6]) it was 22.8%.

On to `COc1ccc2c(=O)c3c(O)cc(O)cc3n(C)c2c1OC` [Compound 19, Grandisine-II], for which the IC50 with HL-60 cells (setting [4]) is > 40 µg/mL and > 133 µM. Also, the inhibition at 30 µg/mL in experiment [1] (setting [5]) was 96%; in experiment [2], 76.5%; in experiment [3] (setting [6]) it was 27.3%.

What is called pIC50 is the negative decadic logarithm of the IC50, by convention in mol/L. With `COc1cc(O)c2c(=O)c3ccc(O)c(OC)c3n(C)c2c1` [Compound 22, Citpressine-I], the “Cell Growth Inhibition, IC50” value in the experiment on HL-60 cells was greater than 40 µg/mL. Further, in the experiment on HL-60 cells (setting [4]), the negative-log IC50 (pIC50) is less than 3.88. Besides, the “% Inhibition of Precursor Incorporation, DNA” value in experiment [2] (at 0.03 mg/mL) is 65.0%.

As to `COc1c(O)ccc2c(=O)c3c(O)c(CC=C(C)C)c(O)cc3n(C)c12` [Compound 25, Buntanine], the half-inhibitory concentration (IC50) in the experiment on HL-60 cells (setting [4]) was 3.6 µg/mL and 10.1 µM. Besides, the inhibition at 30 µg/mL in experiment [1] (setting [5]) was determined as 29.8%; in experiment [2], 96.6%; in experiment [3] (setting [6]), 40.1%.

Take `CC(C)=CCc1c(O)c(CC=C(C)C)c2c(c1O)c(=O)c1cccc(O)c1n2C` [Compound 26, N-methyl-atalaphylline]: the “cell growth inhibition, in words” value with HL-60 cells is given as “significant activity against leukemic cells in vitro”. The concentration for half-maximal inhibition (IC50) in the experiment with HL-60 cells (setting [4]) was 5.4 µg/mL and 13.7 µM. Further, the inhibition at 30 µg/mL in experiment [1] (read-out: % Inhibition of Precursor Incorporation, RNA, at 0.03 mg/mL) was 28.2%; in experiment [2] it was 99.6%; in experiment [3] (HL-60, read-out: % Inhibition of Precursor Incorporation, Protein, at 0.03 mg/mL), 44.3%.

As for `COc1cc(O)c2c(=O)c3ccc(O)c(OC)c3n(C)c2c1CC=C(C)C` [Compound 29, Grandisinine], in the experiment on HL-60 cells, the “cell growth inhibition, in words” value is given as “significant activity against leukemic cells in vitro”. In the experiment on HL-60 cells (setting [4]), the half-inhibitory concentration (IC50) is 6 µg/mL and 16.9 µM. Moreover, the inhibition at 30 µg/mL was 96.5% in experiment [1] (setting [5]), 98.5% in experiment [2] and 94.6% in experiment [3] (setting [6]).

For the compound `COc1c2c(c(O)c3c(=O)c4cccc(O)c4n(C)c13)C=CC(C)(C)O2` [Compound 48, Pyranofoline], the “cell growth inhibition, in words” value with HL-60 cells is “better activity than that of acronycine”. Besides, the IC50 with HL-60 cells (setting [4]) is 3.1 µg/mL and 8.8 µM. Besides, the figures for the inhibition at 30 µg/mL in experiment [1] (setting [5]), in experiment [2] and in experiment [3] (setting [6]) were 97.2%, 98.8% and 96.4%, respectively. Also, the “inhibition of DNA synthesis, in words” value in experiment [2] is on record as “inhibited DNA synthesis significantly”.

For the compound `COc1c(OC(C)=O)ccc2c(=O)c3c(O)cc(OC(C)=O)c(CC=C(C)C)c3n(C)c12` [Compound 28, 3,6-O,O-Diacetyl-prenylcitpressine], the “cell growth inhibition, in words” value with HL-60 cells was “significant activity against leukemic cells in vitro”. Further, the 50% inhibitory concentration (IC50) in the experiment with HL-60 cells (setting [4]) was 2.2 µg/mL and 5 µM. Also, the inhibition at 30 µg/mL in experiment [1] (setting [5]) was 96.1%; in experiment [2], 96.8%; in experiment [3] (setting [6]), 89.6%.

Consider `Cn1c2ccccc2c(=O)c2c(O)cc3c(c21)C=CC(C)(C)O3` [Compound 35, Noracronycine], for which the “cell growth inhibition, in words” value in the experiment on HL-60 cells was “only showed moderate cell growth inhibitory activity”. The IC50 in the experiment with HL-60 cells (setting [4]) is > 40 µg/mL and > 130 µM. The inhibition at 30 µg/mL in experiment [1] (setting [5]) was 94%; in experiment [2], 25.5%; in experiment [3] (setting [6]), 4.7%.

Take `CC1(C)C=Cc2c(cc(O)c3c(=O)c4ccccc4[nH]c23)O1` [Compound 32, des-N-methyl-nor-acronycine]: the “cell growth inhibition, in words” value with HL-60 cells was “only showed moderate cell growth inhibitory activity”. Moreover, in the experiment on HL-60 cells (setting [4]), the 50% inhibitory concentration (IC50) is 9.1 µg/mL and 31 µM. For the same compound, the inhibition at 30 µg/mL in experiment [1] (setting [5]) stood at 77.5%; in experiment [2], 69.2%; in experiment [3] (setting [6]), 85.9%. The “inhibition of DNA synthesis, in words” value in experiment [2] is reported as “did not show good activity”.

For the compound `COc1cc(O)cc2c1c(=O)c1ccccc1n2C` [Compound 8, 1-Methoxy-3-Hydroxy N-methyl acridone], the half-inhibitory concentration (IC50) in the experiment on HL-60 cells (setting [4]) was > 40 µg/mL and > 157 µM. The inhibition at 30 µg/mL in experiment [1] (setting [5]) turned out to be 51.2%; in experiment [2], 53.3%; in experiment [3] (setting [6]), 25.7%.

On to `COc1cc(O)c2c(=O)c3ccc(OC)c(OC)c3n(C)c2c1`, for which the IC50 with HL-60 cells (setting [4]) is > 40 µg/mL and > 127 µM. Further, the inhibition at 30 µg/mL in experiment [1] (setting [5]) turned out to be 95%; in experiment [2], 34.8%; in experiment [3] (setting [6]), 28.3%.

Regarding `COc1c(O)ccc2c(=O)c3c(O)cc4c(c3n(C)c12)C=CC(C)(C)O4` [Compound 42, Citracridone-I], the IC50 in the experiment with HL-60 cells (setting [4]) was 2.9 µg/mL and 8.2 µM. Moreover, the inhibition at 30 µg/mL in experiment [1] (setting [5]) was 96.9%; in experiment [2], 98.5%; in experiment [3] (setting [6]), 90.5%.

In the case of `COc1cc(O)c2c(=O)c3ccccc3n(C)c2c1` [Compound 7, 1-Hydroxy-3-methoxy N-methyl acridone], the IC50 with HL-60 cells (setting [4]) was > 40 µg/mL and > 157 µM. The inhibition at 30 µg/mL in experiment [1] (setting [5]) amounted to 39.5%; in experiment [2], 48.4%; in experiment [3] (setting [6]), 25.2%.

In the case of `CC(C)=CCc1c2c(c3c(c1O)c(=O)c1ccccc1n3C)C=CC(C)(C)O2` [Compound 41, N-Methylseverifoline], the “cell growth inhibition, in words” value in the experiment with HL-60 cells was “only showed moderate cell growth inhibitory activity”. For the same compound, the IC50 in the experiment with HL-60 cells (setting [4]) is > 40 µg/mL and > 107 µM. Further, the inhibition at 30 µg/mL in experiment [1] (setting [5]) was -17.9%; in experiment [2], 21.3%; in experiment [3] (setting [6]), 13.2%. In addition, the “inhibition of DNA synthesis, in words” value in experiment [2] is recorded as “no effect on the inhibitory activity”.

As to `COc1cc(OC(C)=O)c2c(=O)c3cccc(OC(C)=O)c3n(C)c2c1CC=C(C)C` [Compound 14, OO-Diacetyl-glycocitrine-I], the “cell growth inhibition, in words” value with HL-60 cells is reported as “significant activity against leukemic cells in vitro”. Also, the IC50 with HL-60 cells (setting [4]) was 5.6 µg/mL and 13.2 µM. Further, the figures for the inhibition at 30 µg/mL in experiment [1] (setting [5]), in experiment [2] and in experiment [3] (setting [6]) were 63.8%, 94.7% and 89.8%, respectively.

Take `COc1ccc2c(=O)c3c(OC)cc4c(c3n(C)c2c1OC)C=CC(C)(C)O4` [Compound 45, 6-O-Methylcitracridone-II]: in the experiment on HL-60 cells, the “cell growth inhibition, in words” value is on record as “significantly active”. In addition, the half-maximal inhibitory concentration (IC50) in the experiment with HL-60 cells (setting [4]) is 5.9 µg/mL and 15.5 µM. Further, the figures for the inhibition at 30 µg/mL in experiment [1] (setting [5]), in experiment [2] and in experiment [3] (setting [6]) were 37.8%, 98.7% and 49.8%, respectively.
